How the values were obtained:
Format in all cases: in vivo
[1] = system: chickweed (Stellaria media); experiment: Postemergence herbicidal activity, chickweed; conditions: foliar spray, visual after 2 weeks, 0 no injury, 100 complete kill
Procedure, shortened: (§1)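 Greenhouse-grown plants at first or second true leaf stage were sprayed with compound in aqueous acetone/DMSO/isopropanol carrier containing crop oil concentrate and Triton X-155; 1 ppm corresponds to about 1 g/ha. Plants were sub-irrigated, and visual injury versus untreated plants was scored 0–100% after 2 weeks.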

[2] = system: cocklebur (Xanthium strumarium); experiment: Postemergence herbicidal activity, cocklebur; conditions: foliar spray, visual after 2 weeks, 0 no injury, 100 complete kill
Procedure, shortened: as §1

[3] = system: lambsquarters (Chenopodium album); experiment: Postemergence herbicidal activity, lambsquarters; conditions: foliar spray, visual after 2 weeks, 0 no injury, 100 complete kill
Procedure, shortened: as §1

[4] = system: morningglory (Ipomoea hederacea); experiment: Postemergence herbicidal activity, morningglory; conditions: foliar spray, visual after 2 weeks, 0 no injury, 100 complete kill
Procedure, shortened: as §1

[5] = system: pigweed (Amaranthus retroflexus); experiment: Postemergence herbicidal activity, pigweed; conditions: foliar spray, visual after 2 weeks, 0 no injury, 100 complete kill
Procedure, shortened: as §1

[6] = system: velvetleaf (Abutilion theophrasti); experiment: Postemergence herbicidal activity, velvetleaf; conditions: foliar spray, visual after 2 weeks, 0 no injury, 100 complete kill
Procedure, shortened: as §1

viola (Viola tricolor) = experiment: Postemergence herbicidal activity, viola; conditions: foliar spray, visual after 2 weeks, 0 no injury, 100 complete kill
Procedure, shortened: as §1

[7] = system: wild buckwheat (Polygonum convolvulus); experiment: Postemergence herbicidal activity, wild buckwheat; conditions: foliar spray, visual after 2 weeks, 0 no injury, 100 complete kill
Procedure, shortened: as §1

[8] = system: blackgrass (Alopecurus myosuroides); experiment: Postemergence herbicidal activity, blackgrass; conditions: foliar spray, visual after 2 weeks, 0 no injury, 100 complete kill
Procedure, shortened: as §1

[9] = system: giant foxtail (Setaria faberi); experiment: Postemergence herbicidal activity, giant foxtail; conditions: foliar spray, visual after 2 weeks, 0 no injury, 100 complete kill
Procedure, shortened: as §1

[10] = system: Rox orange sorghum (Sorghum bicolor); experiment: Postemergence herbicidal activity, Rox orange sorghum; conditions: foliar spray, visual after 2 weeks, 0 no injury, 100 complete kill
Procedure, shortened: as §1

wild oats (Avena fatua) [11] = experiment: Postemergence herbicidal activity, wild oats; conditions: foliar spray, visual after 2 weeks, 0 no injury, 100 complete kill
Procedure, shortened: as §1

[12] = system: cocklebur (Xanthium strumarium); experiment: Preemergence herbicidal activity, cocklebur; conditions: soil spray, visual after 3 weeks, 0 no injury, 100 complete kill or no germination
Procedure, shortened: (§2)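 Compounds in acetone/DMSO (97:3) were diluted into water with 0.1% Tween 155 and sprayed onto the soil of freshly seeded pots, with a top rate of 4.48 kg/ha. Pots were kept in a greenhouse (~15 h light, 23-29 °C day, 22-28 °C night) for 3 weeks, then injury was rated visually against untreated pots (0-100%).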

[13] = system: lambsquarters (Chenopodium album); experiment: Preemergence herbicidal activity, lambsquarters; conditions: soil spray, visual after 3 weeks, 0 no injury, 100 complete kill or no germination
Procedure, shortened: as §2

[14] = system: morningglory (Ipomoea hederacea); experiment: Preemergence herbicidal activity, morningglory; conditions: soil spray, visual after 3 weeks, 0 no injury, 100 complete kill or no germination
Procedure, shortened: as §2

[15] = system: pigweed (Amaranthus retroflexus); experiment: Preemergence herbicidal activity, pigweed; conditions: soil spray, visual after 3 weeks, 0 no injury, 100 complete kill or no germination
Procedure, shortened: as §2

[16] = system: velvetleaf (Abutilion theophrasti); experiment: Preemergence herbicidal activity, velvetleaf; conditions: soil spray, visual after 3 weeks, 0 no injury, 100 complete kill or no germination
Procedure, shortened: as §2

[17] = system: wild poinsettia (Euphorbia heterophylla); experiment: Preemergence herbicidal activity, wild poinsettia; conditions: soil spray, visual after 3 weeks, 0 no injury, 100 complete kill or no germination
Procedure, shortened: as §2

[18] = system: blackgrass (Alopecurus myosuroides); experiment: Preemergence herbicidal activity, blackgrass; conditions: soil spray, visual after 3 weeks, 0 no injury, 100 complete kill or no germination
Procedure, shortened: as §2

[19] = system: barnyardgrass (Echinochloa crus-galli); experiment: Preemergence herbicidal activity, barnyardgrass; conditions: soil spray, visual after 3 weeks, 0 no injury, 100 complete kill or no germination
Procedure, shortened: as §2

[20] = system: crabgrass (Digitaria sanguinalis); experiment: Preemergence herbicidal activity, crabgrass; conditions: soil spray, visual after 3 weeks, 0 no injury, 100 complete kill or no germination
Procedure, shortened: as §2

[21] = system: giant foxtail (Setaria faberi); experiment: Preemergence herbicidal activity, giant foxtail; conditions: soil spray, visual after 3 weeks, 0 no injury, 100 complete kill or no germination
Procedure, shortened: as §2

[22] = system: Rox orange sorghum (Sorghum bicolor); experiment: Preemergence herbicidal activity, Rox orange sorghum; conditions: soil spray, visual after 3 weeks, 0 no injury, 100 complete kill or no germination
Procedure, shortened: as §2

wild oats (Avena fatua) [23] = experiment: Preemergence herbicidal activity, wild oats; conditions: soil spray, visual after 3 weeks, 0 no injury, 100 complete kill or no germination
Procedure, shortened: as §2

Compound: COc1cnc(OC)n2nc(NS(=O)(=O)c3ccsc3CC(=O)O)nc12 [Compound 6, N-(5,8-dimethoxy[1,2,4]triazolo[1,5-c]pyrimidin-2-yl)-2-carboxymethylthiophene-3-sulfonamide]
- STEME postemergence injury score 0-100 ([1]; 7.8 ppm): 80%
- XANST postemergence injury score 0-100 ([2]; 7.8 ppm): 95%
- CHEAL postemergence injury score 0-100 ([3]; 7.8 ppm): 80%
- IPOHE postemergence injury score 0-100 ([4]; 7.8 ppm): 85%
- AMARE postemergence injury score 0-100 ([5]; 7.8 ppm): 100%
- ABUTH postemergence injury score 0-100 ([6]; 7.8 ppm): 90%
- VIOTR postemergence injury score 0-100 (viola (Viola tricolor); 7.8 ppm): 85%
- POLCO postemergence injury score 0-100 ([7]; 7.8 ppm): 85%
- ALOMY postemergence injury score 0-100 ([8]; 7.8 ppm): 80%
- SETFA postemergence injury score 0-100 ([9]; 7.8 ppm): 98%
- SORBI postemergence injury score 0-100 ([10]; 7.8 ppm): 80%
- AVEFA postemergence injury score 0-100 (wild oats (Avena fatua) [11]; 7.8 ppm): 70%
- XANST preemergence injury score 0-100 ([12]; 35 g/Ha): 70%
- CHEAL preemergence injury score 0-100 ([13]; 35 g/Ha): 99%
- IPOHE preemergence injury score 0-100 ([14]; 35 g/Ha): 80%
- AMARE preemergence injury score 0-100 ([15]; 35 g/Ha): 100%
- ABUTH preemergence injury score 0-100 ([16]; 35 g/Ha): 80%
- EPHHL preemergence injury score 0-100 ([17]; 35 g/Ha): 70%
- ALOMY preemergence injury score 0-100 ([18]; 35 g/Ha): 75%
- ECHCG preemergence injury score 0-100 ([19]; 35 g/Ha): 80%
- DIGSA preemergence injury score 0-100 ([20]; 35 g/Ha): 100%
- SETFA preemergence injury score 0-100 ([21]; 35 g/Ha): 100%
- SORBI preemergence injury score 0-100 ([22]; 35 g/Ha): 100%
- AVEFA preemergence injury score 0-100 (wild oats (Avena fatua) [23]; 35 g/Ha): 80%

Compound: CCOc1cscc1S(=O)(=O)Nc1nc2nc(OC)cc(OC)n2n1 [Compound 12]
- STEME postemergence injury score 0-100 ([1]; 15.6 ppm): 95%
- XANST postemergence injury score 0-100 ([2]; 15.6 ppm): 90%
- CHEAL postemergence injury score 0-100 ([3]; 15.6 ppm): 90%
- IPOHE postemergence injury score 0-100 ([4]; 15.6 ppm): 95%
- AMARE postemergence injury score 0-100 ([5]; 15.6 ppm): 95%
- ABUTH postemergence injury score 0-100 ([6]; 15.6 ppm): 95%
- VIOTR postemergence injury score 0-100 (viola (Viola tricolor); 15.6 ppm): 80%
- POLCO postemergence injury score 0-100 ([7]; 15.6 ppm): 85%
- ALOMY postemergence injury score 0-100 ([8]; 15.6 ppm): 60%
- SETFA postemergence injury score 0-100 ([9]; 15.6 ppm): 95%
- SORBI postemergence injury score 0-100 ([10]; 15.6 ppm): 95%
- AVEFA postemergence injury score 0-100 (wild oats (Avena fatua) [11]; 15.6 ppm): 85%
- XANST preemergence injury score 0-100 ([12]; 8.8 g/Ha): 90%
- CHEAL preemergence injury score 0-100 ([13]; 8.8 g/Ha): 100%
- IPOHE preemergence injury score 0-100 ([14]; 8.8 g/Ha): 80%
- AMARE preemergence injury score 0-100 ([15]; 8.8 g/Ha): 100%
- ABUTH preemergence injury score 0-100 ([16]; 8.8 g/Ha): 90%
- EPHHL preemergence injury score 0-100 ([17]; 8.8 g/Ha): 95%
- ALOMY preemergence injury score 0-100 ([18]; 8.8 g/Ha): 100%
- ECHCG preemergence injury score 0-100 ([19]; 8.8 g/Ha): 100%
- DIGSA preemergence injury score 0-100 ([20]; 8.8 g/Ha): 100%
- SETFA preemergence injury score 0-100 ([21]; 8.8 g/Ha): 100%
- SORBI preemergence injury score 0-100 ([22]; 8.8 g/Ha): 100%
- AVEFA preemergence injury score 0-100 (wild oats (Avena fatua) [23]; 8.8 g/Ha): 100%

Compound: COc1cscc1S(=O)(=O)Nc1nc2c(C)cnc(OC)n2n1 [Compound 17]
- STEME postemergence injury score 0-100 ([1]; 31.3 ppm): 90%
- XANST postemergence injury score 0-100 ([2]; 31.3 ppm): 95%
- CHEAL postemergence injury score 0-100 ([3]; 31.3 ppm): 100%
- IPOHE postemergence injury score 0-100 ([4]; 31.3 ppm): 70%
- AMARE postemergence injury score 0-100 ([5]; 31.3 ppm): 95%
- ABUTH postemergence injury score 0-100 ([6]; 31.3 ppm): 85%
- VIOTR postemergence injury score 0-100 (viola (Viola tricolor); 31.3 ppm): 70%
- POLCO postemergence injury score 0-100 ([7]; 31.3 ppm): 60%
- ALOMY postemergence injury score 0-100 ([8]; 31.3 ppm): 70%
- SETFA postemergence injury score 0-100 ([9]; 31.3 ppm): 90%
- SORBI postemergence injury score 0-100 ([10]; 31.3 ppm): 90%
- AVEFA postemergence injury score 0-100 (wild oats (Avena fatua) [11]; 31.3 ppm): 85%
- XANST preemergence injury score 0-100 ([12]; 35 g/Ha): 70%
- CHEAL preemergence injury score 0-100 ([13]; 35 g/Ha): 100%
- IPOHE preemergence injury score 0-100 ([14]; 35 g/Ha): 0%
- AMARE preemergence injury score 0-100 ([15]; 35 g/Ha): 70%
- ABUTH preemergence injury score 0-100 ([16]; 35 g/Ha): 30%
- EPHHL preemergence injury score 0-100 ([17]; 35 g/Ha): 60%
- ALOMY preemergence injury score 0-100 ([18]; 35 g/Ha): 100%
- ECHCG preemergence injury score 0-100 ([19]; 35 g/Ha): 30%
- DIGSA preemergence injury score 0-100 ([20]; 35 g/Ha): 30%
- SETFA preemergence injury score 0-100 ([21]; 35 g/Ha): 60%
- SORBI preemergence injury score 0-100 ([22]; 35 g/Ha): 60%
- AVEFA preemergence injury score 0-100 (wild oats (Avena fatua) [23]; 35 g/Ha): 30%

Compound: COc1cc(OC)n2nc(NS(=O)(=O)c3cscc3OC)nc2n1 [Compound 15]
- STEME postemergence injury score 0-100 ([1]; 15.6 ppm): 90%
- XANST postemergence injury score 0-100 ([2]; 15.6 ppm): 90%
- CHEAL postemergence injury score 0-100 ([3]; 15.6 ppm): 90%
- IPOHE postemergence injury score 0-100 ([4]; 15.6 ppm): 70%
- AMARE postemergence injury score 0-100 ([5]; 15.6 ppm): 90%
- ABUTH postemergence injury score 0-100 ([6]; 15.6 ppm): 70%
- VIOTR postemergence injury score 0-100 (viola (Viola tricolor); 15.6 ppm): 70%
- POLCO postemergence injury score 0-100 ([7]; 15.6 ppm): 80%
- ALOMY postemergence injury score 0-100 ([8]; 15.6 ppm): 80%
- SETFA postemergence injury score 0-100 ([9]; 15.6 ppm): 100%
- SORBI postemergence injury score 0-100 ([10]; 15.6 ppm): 100%
- AVEFA postemergence injury score 0-100 (wild oats (Avena fatua) [11]; 15.6 ppm): 95%
- XANST preemergence injury score 0-100 ([12]; 8.8 g/Ha): 60%
- CHEAL preemergence injury score 0-100 ([13]; 8.8 g/Ha): 98%
- IPOHE preemergence injury score 0-100 ([14]; 8.8 g/Ha): 70%
- AMARE preemergence injury score 0-100 ([15]; 8.8 g/Ha): 85%
- ABUTH preemergence injury score 0-100 ([16]; 8.8 g/Ha): 90%
- EPHHL preemergence injury score 0-100 ([17]; 8.8 g/Ha): 90%
- ALOMY preemergence injury score 0-100 ([18]; 8.8 g/Ha): 100%
- ECHCG preemergence injury score 0-100 ([19]; 8.8 g/Ha): 80%
- DIGSA preemergence injury score 0-100 ([20]; 8.8 g/Ha): 100%
- SETFA preemergence injury score 0-100 ([21]; 8.8 g/Ha): 100%
- SORBI preemergence injury score 0-100 ([22]; 8.8 g/Ha): 100%
- AVEFA preemergence injury score 0-100 (wild oats (Avena fatua) [23]; 8.8 g/Ha): 100%
